This assay has as its system Jurkat NF-kB luciferase reporter, PMA/ionomycin, luminescence 16 h. As to the kind of experiment: antigen receptor-induced NF-kB inhibitors, dose response, Jurkat, luciferase reporter, luminescence, B- and T-cell (AID 489004).

The structures appear in SMILES notation. Bounds are passed on as bounds.

On to `CC(=O)OC[C@]12CCC(C)=C[C@H]1O[C@@H]1[C@H](O)[C@@H](OC(C)=O)[C@@]2(C)[C@]12CO2`, for which the half-maximal inhibitory concentration (IC50) was less than 0.16 µM.

The record behind these values is PubChem BioAssay AID489004 (Sanford-Burnham Center for Chemical Genomics, 2010).
